This note sets out measurements from publication PMC10379611 (International Journal of Molecular Sciences, 2023).

The IC50 is the concentration at which inhibition is half-maximal.

One assay has as its target T1, ABCC4 (MRP4) (Homo sapiens, UniProt O15439).
T1 construct: purchased Solvo Biotechnology, Budapest; host or cells: HEK293
T1 sequence (O15439 1-1325): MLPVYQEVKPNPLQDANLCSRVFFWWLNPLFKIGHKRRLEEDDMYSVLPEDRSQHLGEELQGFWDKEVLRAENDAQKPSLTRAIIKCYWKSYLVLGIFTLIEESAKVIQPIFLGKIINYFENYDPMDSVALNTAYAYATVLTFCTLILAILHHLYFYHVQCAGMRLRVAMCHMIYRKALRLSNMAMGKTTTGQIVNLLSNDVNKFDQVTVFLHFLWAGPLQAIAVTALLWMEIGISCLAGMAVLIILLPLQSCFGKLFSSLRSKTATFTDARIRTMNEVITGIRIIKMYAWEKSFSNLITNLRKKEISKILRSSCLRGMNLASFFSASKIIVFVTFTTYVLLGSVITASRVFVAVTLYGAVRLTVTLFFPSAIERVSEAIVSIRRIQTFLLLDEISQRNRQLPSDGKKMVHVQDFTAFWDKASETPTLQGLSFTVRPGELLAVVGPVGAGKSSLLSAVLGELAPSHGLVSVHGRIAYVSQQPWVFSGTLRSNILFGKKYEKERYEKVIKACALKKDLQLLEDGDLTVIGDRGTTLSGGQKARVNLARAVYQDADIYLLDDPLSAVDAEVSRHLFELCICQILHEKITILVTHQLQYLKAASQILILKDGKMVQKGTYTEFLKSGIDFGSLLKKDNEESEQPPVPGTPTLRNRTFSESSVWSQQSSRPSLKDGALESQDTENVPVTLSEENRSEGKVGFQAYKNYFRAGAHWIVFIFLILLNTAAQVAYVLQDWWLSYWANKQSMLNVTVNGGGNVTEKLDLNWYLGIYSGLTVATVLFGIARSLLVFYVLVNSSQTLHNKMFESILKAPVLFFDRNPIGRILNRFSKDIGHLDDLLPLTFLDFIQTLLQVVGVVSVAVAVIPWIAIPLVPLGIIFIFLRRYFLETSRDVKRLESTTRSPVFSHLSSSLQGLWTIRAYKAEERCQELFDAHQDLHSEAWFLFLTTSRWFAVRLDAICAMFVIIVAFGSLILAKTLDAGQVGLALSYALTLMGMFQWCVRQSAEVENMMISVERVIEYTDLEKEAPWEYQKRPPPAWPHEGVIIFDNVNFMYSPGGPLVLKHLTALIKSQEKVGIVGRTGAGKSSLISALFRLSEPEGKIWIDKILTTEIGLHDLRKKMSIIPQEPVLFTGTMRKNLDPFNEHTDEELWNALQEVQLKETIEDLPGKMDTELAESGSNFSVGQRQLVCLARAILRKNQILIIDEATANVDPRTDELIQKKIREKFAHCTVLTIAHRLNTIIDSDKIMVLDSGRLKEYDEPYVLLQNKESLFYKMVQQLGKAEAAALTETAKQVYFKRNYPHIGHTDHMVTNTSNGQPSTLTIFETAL
Description: ABCC4 vesicular transport (DHEAS), HEK293 inverted membrane vesicles. The class given is biochemical. Particulars: concentrations up to 200 μM.

A further assay has as its target T2, CNT2 (Homo sapiens, UniProt O43868).
T2 construct: expressed in transfected cells; host or cells: MDCKII (lentiviral transduction)
T2 sequence (O43868 1-658): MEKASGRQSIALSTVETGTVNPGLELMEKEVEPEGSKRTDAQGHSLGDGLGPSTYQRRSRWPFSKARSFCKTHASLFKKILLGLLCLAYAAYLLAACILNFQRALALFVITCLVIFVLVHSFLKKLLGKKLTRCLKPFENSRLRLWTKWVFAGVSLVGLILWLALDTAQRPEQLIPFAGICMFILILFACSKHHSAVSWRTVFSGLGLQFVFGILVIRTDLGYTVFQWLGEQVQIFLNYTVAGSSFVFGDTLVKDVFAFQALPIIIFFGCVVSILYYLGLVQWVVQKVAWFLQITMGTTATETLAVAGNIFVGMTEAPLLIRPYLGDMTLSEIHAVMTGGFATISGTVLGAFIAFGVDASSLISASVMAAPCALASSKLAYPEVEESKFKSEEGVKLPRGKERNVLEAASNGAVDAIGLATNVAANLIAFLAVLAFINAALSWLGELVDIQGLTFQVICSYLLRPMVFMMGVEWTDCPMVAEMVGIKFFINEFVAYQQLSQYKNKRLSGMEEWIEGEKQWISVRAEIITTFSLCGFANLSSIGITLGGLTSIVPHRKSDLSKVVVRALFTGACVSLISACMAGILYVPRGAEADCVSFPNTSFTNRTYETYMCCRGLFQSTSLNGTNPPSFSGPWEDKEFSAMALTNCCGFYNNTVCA
Description: CNT2-mediated uridine uptake in CNT2-MDCKII cells. The class given is cell-based. The procedure:
ENT and CNT transporter interactions were investigated in transporter-overexpressing cell lines. Madin-Darby Canine Kidney II (MDCKII) cell lines overexpressing the human uptake transporters CNT1, CNT2, ENT1, and ENT2 were generated via lentiviral transduction. Cell cultures were maintained in Dulbecco’s modified Eagle’s medium (DMEM) and 4500 mg/L of glucose supplemented with GlutaMax^TM, 10% v/v fetal bovine serum (FBS), 100 units/mL penicillin, and 100 µg/mL streptomycin (all from Gibco/ThermoFisher, Waltham, MA, USA) at 37 °C in 5% CO2 at 95% humidity. For uptake inhibition assays, transporter-expressing cells and mock-transduced control cells were seeded on 96-well tissue culture plates at a density of 1 × 10^5 cells/well. Twenty-four hours after seeding, cells were rinsed twice with Krebs-Henseleit buffer (KH buffer, pH 7.4) and then preincubated for 30 min with solutions containing serial dilutions of the test compounds in KH at room temperature. Following preincubation, the solutions were removed, the cells were rinsed twice with KH buffer, and coincubation was started with a suitable radiolabeled substrate and the diluted series of test compounds. Assay conditions were as follows: 1 µM uridine (traced with 0.1 µCi ^3H-Uridine/well), 30 s (CNT1), and 1 min (CNT2, ENT1) incubations; 1 µM adenosine (traced with 0.1 µCi ^3H-Adenosine/well) and 2 min (ENT2) incubation. All experiments were conducted at room temperature. […] To determine the amounts of accumulated radiolabeled substrates, cell lysates mixed with a liquid scintillation cocktail were measured with a MicroBeta2 microplate counter (PerkinElmer, Singapore).
Transporter-specific accumulation of the probe substrate was calculated using the following formula: ACCSpec = ACCTRP − ACCMock, where ACCTRP is the accumulation of the probe in transporter-expressing cells and ACCMock is the accumulation of the probe in control cells. Relative transporter-specific accumulation values were calculated as percentages of the control value (with vehicle only).

Take `O=c1nc(NO)ccn1[C@@H]1O[C@H](CO)[C@@H](O)[C@H]1O` [EIDD-1931]: the “effect on ATP-dependent DHEAS uptake by ABCC4/MRP4” value on ABCC4 (MRP4) was “no significant effects”. For the same compound, the “inhibition of CNT2-mediated uridine uptake” value against CNT2 was “strong inhibition”. Half-maximal inhibition on CNT2 (1 µM uridine) (IC50) was put at 10.2 µM.

For `CC(C)C(=O)OC[C@H]1O[C@@H](n2ccc(NO)nc2=O)[C@H](O)[C@@H]1O` [EIDD-2801, Molnupiravir], the “effect on ATP-dependent DHEAS uptake by ABCC4/MRP4” value at ABCC4 (MRP4) is reported as “no significant effects”. Besides, on CNT2, the “inhibition of CNT2-mediated uridine uptake” value is reported as “less potently inhibited”.
